Results as given in PubChem BioAssay AID296 (DTP/NCI, 2004).
Where “and” joins values, the source holds several entries; their conditions need not be identical. Identical values can stand only once. Results filed as inconclusive are left out.

Test system: MX-1 breast xenograft, nude mice, tumor weight T/C
Experiment: NCI In Vivo Anticancer Drug Screen. Data for tumor model Human Mammary Carcinoma MX-1 Xenograft (intrarenal inoculation) in NU/NU Swiss (nude) mice
Conditions: endpoint: mean tumor weight change, higher = larger tumour
Protocol: The antitumor activity of compounds was measured in mice bearing transplantable tumors. Survival or tumor size were measured and the results are expressed as the measurement made in the treated group (T) divided by the measurement made in the vehicle treated control group (C). The tumor model used in this assay is Human Mammary Carcinoma MX-1 Xenograft (intrarenal inoculation) in NU/NU Swiss (nude) mice

[1] = dose: 300.0 mg/kg/injection, schedule: Q04DX003 (sc), vehicle: Klucel (hydroxypropylcellulose) (HPC)
[2] = dose: 600.0 mg/kg/injection, schedule: Q04DX003 (sc), vehicle: Klucel (hydroxypropylcellulose) (HPC)
[3] = dose: 1200.0 mg/kg/injection, schedule: Q04DX003 (sc), vehicle: Klucel (hydroxypropylcellulose) (HPC)
[4] = dose: 2400.0 mg/kg/injection, schedule: Q04DX003 (sc), vehicle: Klucel (hydroxypropylcellulose) (HPC)
[5] = dose: 300.0 mg/kg/injection, schedule: Q04DX003 (sc), vehicle: suspension in saline
[6] = dose: 600.0 mg/kg/injection, schedule: Q04DX003 (sc), vehicle: suspension in saline
[7] = dose: 1200.0 mg/kg/injection, schedule: Q04DX003 (sc), vehicle: suspension in saline
[8] = dose: 2400.0 mg/kg/injection, schedule: Q04DX003 (sc), vehicle: suspension in saline
[9] = dose: 75.0 mg/kg/injection, schedule: Q04DX003 (sc), vehicle: Klucel (hydroxypropylcellulose) (HPC)
[10] = dose: 75.0 mg/kg/injection, schedule: Q04DX003 (sc), vehicle: saline with Tween-80
[11] = dose: 150.0 mg/kg/injection, schedule: Q04DX003 (sc), vehicle: saline with Tween-80
[12] = dose: 300.0 mg/kg/injection, schedule: Q04DX003 (sc), vehicle: saline with Tween-80
[13] = dose: 600.0 mg/kg/injection, schedule: Q04DX003 (sc), vehicle: saline with Tween-80
[14] = dose: 300.0 mg/kg/injection, schedule: Q04DX003 (sc), vehicle: saline
[15] = dose: 600.0 mg/kg/injection, schedule: Q04DX003 (sc), vehicle: saline
[16] = dose: 1200.0 mg/kg/injection, schedule: Q04DX003 (sc), vehicle: saline

Question: For `O=C(O)C1(NO)CCCCC1`, which T/C (dose: 200.0 mg/kg/injection, schedule: Q04DX003 (sc), vehicle: Klucel (hydroxypropylcellulose) (HPC)) is on record?
Answer: 110 % of control

Question: And the T/C (dose: 400.0 mg/kg/injection, schedule: Q04DX003 (sc), vehicle: Klucel (hydroxypropylcellulose) (HPC))?
Answer: 100 % of control

Question: And the T/C (dose: 800.0 mg/kg/injection, schedule: Q04DX003 (sc), vehicle: Klucel (hydroxypropylcellulose) (HPC))?
Answer: 123 % of control

Question: And the T/C (dose: 1600.0 mg/kg/injection, schedule: Q04DX003 (sc), vehicle: Klucel (hydroxypropylcellulose) (HPC))?
Answer: 64 % of control

Question: What does the source list for `CN(C)C(=O)SC1=C(c2c(Cl)cccc2Cl)C(=O)c2ccccc21`?
Answer: T/C [1]: 76 % of control; T/C [2]: 65 % of control; T/C [3]: 57 % of control; T/C [4]: 67 % of control

Question: `C[C@@]12C(=O)OC(=O)[C@]1(C)[C@H]1CC[C@@H]2O1` was tested. Which T/C (dose: 1.25 mg/kg/injection, schedule: Q04DX003 (sc), vehicle: Klucel (hydroxypropylcellulose) (HPC)) did it give?
Answer: 29 % of control

Question: What about the T/C (dose: 2.5 mg/kg/injection, schedule: Q04DX003 (sc), vehicle: Klucel (hydroxypropylcellulose) (HPC)) of the same molecule?
Answer: 74 % of control

Question: How did the T/C [5] turn out when `NC(=S)c1ncn(C2OC(CO)C(O)C2O)c1N` (configuration not stated) was run?
Answer: 50 % of control

Question: And the T/C [6]?
Answer: 89 % of control

Question: And the T/C [7]?
Answer: 95 % of control

Question: What about the T/C [8] of the same molecule?
Answer: 99 % of control

Question: Which T/C [5] does the source give for `COc1ccc(/C=C/C(=O)c2cc(C(=O)O)c(OC)cc2OC)cc1OC` here?
Answer: 99 % of control

Question: `O=C([CH-]C(=O)C(F)(F)F)c1ccccc1.O=C([CH-]C(=O)C(F)(F)F)c1ccccc1.O=C([CH-]C(=O)C(F)(F)F)c1ccccc1.O=C([CH-]C(=O)C(F)(F)F)c1ccccc1.[Eu+3].c1ccncc1` was tested. Which T/C (dose: 50.0 mg/kg/injection, schedule: Q01DX010 (sc), vehicle: Klucel (hydroxypropylcellulose) (HPC)) did it give?
Answer: 197 % of control

Question: And the T/C (dose: 100.0 mg/kg/injection, schedule: Q01DX010 (sc), vehicle: Klucel (hydroxypropylcellulose) (HPC))?
Answer: 174 % of control

Question: What about the T/C (dose: 200.0 mg/kg/injection, schedule: Q01DX010 (sc), vehicle: Klucel (hydroxypropylcellulose) (HPC)) of the same molecule?
Answer: 97 % of control

Question: What about the T/C (dose: 400.0 mg/kg/injection, schedule: Q01DX010 (sc), vehicle: Klucel (hydroxypropylcellulose) (HPC)) of the same molecule?
Answer: 178 % of control

Question: `Cc1ncc(CNC(=O)N(CCCl)N=O)c(N)n1` was tested. Which T/C (dose: 9.38 mg/kg/injection, schedule: Q04DX003 (sc), vehicle: saline) did it give?
Answer: 43 % of control

Question: And the T/C (dose: 18.75 mg/kg/injection, schedule: Q04DX003 (sc), vehicle: saline)?
Answer: 28 % of control

Question: What does the source list for `O=S(=O)(O)O`?
Answer: T/C [9]: 86 % of control; T/C (dose: 150.0 mg/kg/injection, schedule: Q04DX003 (sc), vehicle: Klucel (hydroxypropylcellulose) (HPC)): 94 % of control; T/C [1]: 85 % of control

Question: Which results are given for `N#Cc1c(-c2ccc(F)cc2)c(-c2ccc(F)cc2)nn(CCO)c1=O`?
Answer: T/C (dose: 100.0 mg/kg/injection, schedule: Q04DX003 (ip), vehicle: distilled water + Tween-80): 101 % of control; T/C (dose: 200.0 mg/kg/injection, schedule: Q04DX003 (ip), vehicle: distilled water + Tween-80): 80 % of control

Question: For `O=S(=O)(N=N/C=C1\C=CC=CN1O)c1cccs1`, which T/C [10] is on record?
Answer: 99 % of control

Question: What about the T/C [11] of the same molecule?
Answer: 77 % of control

Question: What about the T/C [12] of the same molecule?
Answer: 72 % of control

Question: With `CCOC(=O)C(CC(C)C)NC(=O)C(Cc1ccc(N(CCCl)CCCl)cc1)NC(C)=O` (configuration not stated) as the molecule, how does the T/C (dose: 37.5 mg/kg/injection, schedule: Q04DX003 (sc), vehicle: saline with Tween-80) read?
Answer: 50 % of control

Question: And the T/C [13]?
Answer: -97 % of control and -96 % of control

Question: Which T/C (dose: 9.38 mg/kg/injection, schedule: Q04DX003 (sc), vehicle: Klucel (hydroxypropylcellulose) (HPC)) does the source give for `C1CCC2OCCOCCOC3CCCCC3OCCOCCOC2C1` (configuration not stated) here?
Answer: 62 % of control

Question: What about the T/C (dose: 18.75 mg/kg/injection, schedule: Q04DX003 (sc), vehicle: Klucel (hydroxypropylcellulose) (HPC)) of the same molecule?
Answer: 87 % of control

Question: What about the T/C (dose: 37.5 mg/kg/injection, schedule: Q04DX003 (sc), vehicle: Klucel (hydroxypropylcellulose) (HPC)) of the same molecule?
Answer: 64 % of control

Question: And the T/C [9]?
Answer: 46 % of control

Question: Which T/C (dose: 0.15 mg/kg/injection, schedule: Q04DX003 (sc), vehicle: saline) does the source give for `COC(=O)C[C@](O)(CCC(C)(C)O)C(=O)O[C@@H]1C(OC)=C[C@]23CCCN2CCc2cc4c(cc2[C@H]13)OCO4` here?
Answer: 123 % of control

Question: What about the T/C (dose: 0.31 mg/kg/injection, schedule: Q04DX003 (sc), vehicle: saline) of the same molecule?
Answer: 93 % of control

Question: What about the T/C (dose: 0.63 mg/kg/injection, schedule: Q04DX003 (sc), vehicle: saline) of the same molecule?
Answer: 119 % of control

Question: And the T/C (dose: 1.25 mg/kg/injection, schedule: Q04DX003 (sc), vehicle: saline)?
Answer: 97 % of control

Question: With `Nc1nc(-c2ccccc2)c(Br)c(=O)[nH]1` as the molecule, how does the T/C [12] read?
Answer: 96 % of control

Question: And the T/C [13]?
Answer: 93 % of control

Question: And the T/C (dose: 1200.0 mg/kg/injection, schedule: Q04DX003 (sc), vehicle: saline with Tween-80)?
Answer: 109 % of control

Question: And the T/C (dose: 2400.0 mg/kg/injection, schedule: Q04DX003 (sc), vehicle: saline with Tween-80)?
Answer: 65 % of control

Question: For `Cc1ccccc1CN1C2=NCCN2C(=O)C2=C1CCN(S(=O)(=O)c1ccc(Cl)c(S(N)(=O)=O)c1)C2`, which T/C [14] is on record?
Answer: 59 % of control

Question: And the T/C [15]?
Answer: 122 % of control

Question: What about the T/C [16] of the same molecule?
Answer: 109 % of control

Question: How did the T/C (dose: 150.0 mg/kg/injection, schedule: Q04DX003 (sc), vehicle: suspension in saline) turn out when `O=c1[nH]cnc2[nH]ncc12` was run?
Answer: 46 % of control

Question: What about the T/C [5] of the same molecule?
Answer: 44 % of control

Question: What about the T/C [6] of the same molecule?
Answer: 119 % of control

Question: And the T/C [7]?
Answer: 112 % of control

Question: `N=c1ccn2c(n1)OC1C(O)C(CO)OC12` (configuration not stated) was tested. Which T/C (dose: 150.0 mg/kg/injection, schedule: Q04DX003 (sc), vehicle: saline) did it give?
Answer: 102 % of control

Question: And the T/C [14]?
Answer: 84 % of control

Question: What about the T/C (dose: 400.0 mg/kg/injection, schedule: Q04DX003 (sc), vehicle: saline) of the same molecule?
Answer: 95 % of control

Question: What about the T/C [15] of the same molecule?
Answer: 42 % of control

Question: And the T/C [6]?
Answer: 70 % of control

Question: And the T/C (dose: 800.0 mg/kg/injection, schedule: Q04DX003 (sc), vehicle: saline)?
Answer: 69 % of control

Question: What about the T/C [16] of the same molecule?
Answer: 50 % of control

Question: And the T/C [7]?
Answer: 55 % of control

Question: What about the T/C (dose: 1600.0 mg/kg/injection, schedule: Q04DX003 (sc), vehicle: saline) of the same molecule?
Answer: 64 % of control

Question: What about the T/C [8] of the same molecule?
Answer: 70 % of control

Question: Which results are given for `CC1=CC(=NN=c2cc(C)n([O-])c(C)c2)C=C(C)[N+]1=O`?
Answer: T/C [5]: 90 % of control; T/C [6]: 36 % of control; T/C [7]: 112 % of control; T/C [8]: 32 % of control

Question: For `Cc1cc(Nc2ccc3c(c2)OCO3)c2cc3c(cc2n1)OCO3`, which T/C [1] is on record?
Answer: 61 % of control

Question: What about the T/C [2] of the same molecule?
Answer: 81 % of control

Question: And the T/C [3]?
Answer: 81 % of control

Question: What about the T/C [4] of the same molecule?
Answer: 92 % of control

Question: How did the T/C [11] turn out when `C[CH2][Ge]([CH2]C)[CH2]C.C[CH2][Ge]([CH2]C)[CH2]C.C[CH2][Ge]([CH2]C)[O][Ge]([CH2]C)[CH2]C` was run?
Answer: 109 % of control

Question: And the T/C [12]?
Answer: 79 % of control

Question: `N=C(N)c1ccc(/C=C/c2ccc(C(=N)N)cc2O)cc1` was tested. Which T/C (dose: 37.5 mg/kg/injection, schedule: Q04DX003 (sc), vehicle: water) did it give?
Answer: 87 % of control

Question: What about the T/C (dose: 75.0 mg/kg/injection, schedule: Q04DX003 (sc), vehicle: water) of the same molecule?
Answer: 83 % of control

Question: What about the T/C (dose: 150.0 mg/kg/injection, schedule: Q04DX003 (sc), vehicle: water) of the same molecule?
Answer: 89 % of control

Question: And the T/C (dose: 300.0 mg/kg/injection, schedule: Q04DX003 (sc), vehicle: water)?
Answer: 77 % of control

Question: How did the T/C [10] turn out when `Cc1cc(=O)n2c3c(c4c(cc13)c(CN(C)C)cc(=O)n4C)OC2` was run?
Answer: 109 % of control

Question: And the T/C [11]?
Answer: 151 % of control

Question: What about the T/C [12] of the same molecule?
Answer: 80 % of control
